Assay results: US5252579A, “Macrocyclic immunomodulators” (American Home Products Corporation, priority 1993, dated 1993)
Like-named read-outs stand apart in the source and are kept apart here.

Experiments:
thymocyte proliferation = test: comitogen-induced thymocyte proliferation procedure (LAF); assay type: cell-based, BALB/c mice; conditions: for IC50: read-out: LAF IC50
Experimental: (§1) Immunosuppressive activity for a representative compound of this invention was evaluated in an in vitro standard pharmacological test procedure to measure lymphocyte proliferation (LAF) and in an in vivo standard pharmacological test procedure with evaluated the survival time of a pinch skin graft.
The comitogen-induced thymocyte proliferation procedure (LAF) was used as an […] measure of the immunosuppressive effects of representative compounds. Briefly, cells from the thymus of normal BALB/c mice are cultured for 72 hours with PHA and IL-1 and pulsed with tritiated thymidine during the last six hours. Cells are cultured with and without various concentrations of rapamycin, cyclosporin A, or test compound. Cells are harvested and incorporated radioactivity is determined. Inhibition of lymphoproliferation is assessed as percent change in counts per minute from non-drug treated controls. For each compound evaluated, rapamycin was also evaluated for the purpose of comparison. An IC50 was obtained for each test compound as well as for rapamycin. The results obtained for the representative compounds of this invention were also expressed as a ratio compared with rapamycin. A positive ratio indicates immunosuppressive activity. […] Calculation of the ratio is shown below. [formula]

skin graft = test: pinch skin graft survival test procedure; assay type: in vivo, male BAB/c donors, male C3H(H-2K) recipients; conditions: 4 mg/kg of test compound; intraperitoneally or orally; untreated control 7.00 ± 0.00 days
Experimental: as §1
A representative compound of this invention was also evaluated in an in vivo test procedure designed to determine the survival time of pinch skin graft from male BAB/c donors transplanted to male C3 H(H-2K) recipients. The method is adapted from Billingham R. E. and Medawar P. B., J. Exp. Biol. 28:385-402, (1951). Briefly, a pinch skin graft from the donor was grafted on the dorsum of the recipient as a allograft, and an isograft was used as control in the same region. The recipients were treated with either varying concentrations of test compounds intraperitoneally or orally. Rapamycin was used as a test control. Untreated recipients serve as rejection control. The graft was monitored daily and observations were recorded until the graft became dry and formed a blackened scab. This was considered as the rejection day. The mean graft survival time (number of days±S.D.) of the drug treatment group was compared with the control group. […] Results are expressed as the mean survival time in days. Untreated (control) pinch skin grafts are usually rejected within 6-7 days. […]

[1] = alone or in combination with picibanil; cited from earlier work
[2] = tested on: experimental allergic encephalomyelitis model; conditions: model for multiple sclerosis; cited from earlier work
adjuvant arthritis model = conditions: model for rheumatoid arthritis; cited from earlier work
Candida albicans = conditions: both in vitro and in vivo; cited from earlier work
IgE-like antibodies = conditions: cited from earlier work

Compound: 23,25-Deepoxy-23,25-(2-aminoethanethio)-rapamycin [Example 2]
- T cell proliferation inhibition (thymocyte proliferation; at 10 nM): 77%
- T cell proliferation inhibition (thymocyte proliferation; at 0.1 μM): 96%
- LAF ratio (compared with rapamycin) (thymocyte proliferation; ratio > 1: inhibits thymocyte proliferation to a greater extent than rapamycin): 0.82
- IC50 (thymocyte proliferation; thymocytes cultured 72 hours with PHA and IL-1, tritiated thymidine): 5.1 nM
- Skin Graft survival (days ± SD) (skin graft): 9.00 ± 0.63 days

Compound: CO[C@H]1C[C@@H]2CC[C@@H](C)[C@@](O)(O2)C(=O)C(=O)N2CCCC[C@H]2C(=O)O[C@H]([C@H](C)C[C@@H]2CC[C@@H](O)[C@H](OC)C2)CC(=O)[C@H](C)/C=C(\C)[C@@H](O)[C@@H](OC)C(=O)[C@H](C)C[C@H](C)/C=C/C=C/C=C/1C [Rapamycin]
- antitumor activity [1]: antitumor activity
- effect in experimental allergic encephalomyelitis model [2]: effective
- effect in adjuvant arthritis model (adjuvant arthritis model): effective
- IC50 (thymocyte proliferation; Mus musculus, Thymocyte, 72 h): 4.2 nM
- antifungal activity (Candida albicans): antifungal activity, particularly against Candida albicans
- inhibition of formation of IgE-like antibodies (IgE-like antibodies): effectively inhibited
- Skin Graft survival (days ± SD) (skin graft): 11.67 ± 0.63 days
